According to US4738969A, “Substituted aminopyridones and aminoquinolones having histamine H2 -receptor blocking activity” (Smith Kline & French Laboratories Limited, priority 1983, dated 1988):

Tests used:
histamine H2 -receptors [1] = experiment: inhibition of histamine-stimulated secretion of gastric acid from the lumen-perfused stomachs of rats anaesthetised with urethane (lumen-perfused rat test); type: in vivo; conditions: times more active than the reference compound
From the text: These are actions of histamine which, according to Ash and Schild, Brit. J. Pharmac. Chemother. 27 247 (1966), are not mediated by histamine H1 -receptors.
(§1) The measurement of inhibition of histamine-stimulated secretion of gastric acid from the lumen-perfused stomachs of rats anaesthetised with urethane, and the measurement of inhibition of histamine-induced tachycardia in the isolated guinea pig right atrium, are detailed in U.S. Pat. No. 4,385,058.

histamine H2 -receptors [2] = experiment: inhibition of histamine-induced tachycardia in the isolated guinea pig right atrium (guinea pig atrium test); type: cell-based; conditions: times more active than the reference compound
From the text: as §1

histamine H2 -receptors [3] = experiment: inhibition of histamine-stimulated acid secretion in the Heidenhain Pouch Dog; type: in vivo; conditions: intravenous administration, dose levels adjusted to produce similar peak responses

O=c1cc[nH]c(NCCCOc2cccc(CN3CCCCC3)c2)c1 [Example 1, 2-[3-[3-(Piperidinomethyl)phenoxy]propylaminc]-pyrid-4-one]
activity relative to 2-[2-(5-methylimidazol-4-ylmethylthio)ethylamino]pyrid-4-one (Example 16 of U.S. Pat. No. 3,932,644), lumen-perfused rat test (histamine H2 -receptors [1]): over 100 times | activity relative to 2-[2-(5-methylimidazol-4-ylmethylthio)ethylamino]pyrid-4-one (Example 16 of U.S. Pat. No. 3,932,644), guinea pig atrium test (histamine H2 -receptors [2]): over 100 times | duration of activity compared with cimetidine (histamine H2 -receptors [3]): longer duration of activity than cimetidine
